Here are results for 53 compounds from ChEMBL document CHEMBL1201862, “PubChem BioAssay data set” (2004).

The source made the active and inactive calls.

Experiment [1] in a line: inhibitors of intracellular T. cruzi replication, confirmation, NIH3T3 host cells, beta-gal luminescence (AID 2044).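 Further: intracellular parasites grown in NIH/3T3 mouse fibroblasts as host cells; luminescent beta-galactosidase reporter signal from transgenic T. cruzi replicating inside host cells; inhibitors lower the luminescence signal.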 The format is functional, cell-based.
The nature of experiment [2]: cytotoxicity toward NIH3T3 fibroblasts, dose response, counter-screen, cell-based, ATP luminescence, mouse fibroblasts (AID 2010).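 Further: cells exposed to compound for about 90 hours before reading.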 Type of experiment: functional. (Counterscreens check selectivity or assay interference.)
The target of the next experiment is Cytochrome P450 3A4 (Homo sapiens, UniProt P08684).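 Further: CYP3A4 tested as one member of a cytochrome P450 panel screen.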
In another experiment the target is Cytochrome P450 2D6 (Homo sapiens, UniProt P10635).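 Further: CYP2D6 member of a cytochrome P450 panel assay.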
The nature of experiment [3]: HEp-2 cell cytotoxicity, dose response, cytotoxicity control for RSV inhibitor project, HTS (AID 2410). Type of experiment: functional. The settings on record: human respiratory syncytial virus.
The next experiment deals with Cytochrome P450 2C19 (Homo sapiens, UniProt P33261). The experiment is described as follows: Cytochrome panel assay with activity outcomes. Panel member name: p450-cyp2c19 Compounds with AC50 equal or less than 10 uM are considered active. Type of experiment: functional. The settings on record: read-out: AC50.
Another experiment relates to Streptococcus. Description: Group A Streptococcus viability loss, dose response, counter-screen for streptokinase expression inhibitor project, luminescence, BacTiterGlo (AID 1915).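 Further: potency for reduction of bacterial viability or growth.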 The format is functional, organism-based.
For experiment [4], the system named is Streptococcus sp. 'group A'. The experiment is described as follows: growth inhibition of control SK(-) GAS strain, dose response, counter-screen for streptokinase expression inhibitor project, luminescence, kanamycin, BacTiterGlo, confirmation (AID 1900). Type of experiment: functional, organism-based.
The target in the next experiment is T1, Streptokinase A (Streptococcus pyogenes serotype M1, UniProt P10520).
T1 sequence (P10520 whole entry): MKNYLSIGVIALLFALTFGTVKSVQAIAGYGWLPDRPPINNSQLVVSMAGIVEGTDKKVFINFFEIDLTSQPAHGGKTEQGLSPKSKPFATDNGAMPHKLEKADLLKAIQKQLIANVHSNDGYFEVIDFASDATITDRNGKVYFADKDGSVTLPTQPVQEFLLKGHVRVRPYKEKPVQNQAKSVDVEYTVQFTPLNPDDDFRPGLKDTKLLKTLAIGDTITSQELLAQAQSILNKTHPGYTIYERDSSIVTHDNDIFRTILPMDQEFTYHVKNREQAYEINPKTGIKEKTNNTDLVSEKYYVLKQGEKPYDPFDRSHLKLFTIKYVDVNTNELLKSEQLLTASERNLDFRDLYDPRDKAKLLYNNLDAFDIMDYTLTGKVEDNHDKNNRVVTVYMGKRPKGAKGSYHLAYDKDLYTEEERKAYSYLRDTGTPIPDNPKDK
The experiment is described as follows: S. pyogenes streptokinase expression inhibitors, potency, dose response, plasminogen activation absorbance, OD405 (AID 1914).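 Further: secreted streptokinase activity via plasminogen activation per viability signal from cell pellet.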 The format is functional, Streptococcus pyogenes M1 GAS.

Cytochrome P450 2C19, sequence (P33261 whole entry): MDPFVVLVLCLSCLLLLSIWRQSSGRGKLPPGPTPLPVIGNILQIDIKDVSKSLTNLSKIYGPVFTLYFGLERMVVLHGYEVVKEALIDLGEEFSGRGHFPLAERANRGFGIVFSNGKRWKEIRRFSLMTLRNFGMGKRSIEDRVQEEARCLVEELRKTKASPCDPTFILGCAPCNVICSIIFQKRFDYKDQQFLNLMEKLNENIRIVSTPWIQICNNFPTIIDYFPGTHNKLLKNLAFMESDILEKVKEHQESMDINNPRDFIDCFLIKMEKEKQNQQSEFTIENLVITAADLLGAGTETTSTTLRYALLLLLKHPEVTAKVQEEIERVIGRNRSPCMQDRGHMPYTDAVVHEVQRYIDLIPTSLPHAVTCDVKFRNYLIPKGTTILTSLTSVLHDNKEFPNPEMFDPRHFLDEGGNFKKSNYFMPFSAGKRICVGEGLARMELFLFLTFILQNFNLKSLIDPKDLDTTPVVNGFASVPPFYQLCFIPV
Cytochrome P450 3A4, sequence (P08684 whole entry): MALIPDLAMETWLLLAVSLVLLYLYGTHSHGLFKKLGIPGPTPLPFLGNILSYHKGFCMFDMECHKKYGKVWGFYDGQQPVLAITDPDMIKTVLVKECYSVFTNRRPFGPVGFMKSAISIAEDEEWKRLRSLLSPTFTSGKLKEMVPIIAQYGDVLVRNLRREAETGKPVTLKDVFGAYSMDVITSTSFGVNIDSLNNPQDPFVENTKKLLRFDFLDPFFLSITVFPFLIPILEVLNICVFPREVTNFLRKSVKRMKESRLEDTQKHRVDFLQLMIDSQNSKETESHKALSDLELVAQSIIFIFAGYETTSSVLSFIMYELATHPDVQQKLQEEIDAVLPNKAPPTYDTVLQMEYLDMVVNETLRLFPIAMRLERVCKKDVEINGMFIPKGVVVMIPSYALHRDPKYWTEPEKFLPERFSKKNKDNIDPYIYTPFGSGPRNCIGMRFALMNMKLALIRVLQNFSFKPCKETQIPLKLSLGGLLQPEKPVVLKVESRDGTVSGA
Cytochrome P450 2D6, sequence (P10635 whole entry): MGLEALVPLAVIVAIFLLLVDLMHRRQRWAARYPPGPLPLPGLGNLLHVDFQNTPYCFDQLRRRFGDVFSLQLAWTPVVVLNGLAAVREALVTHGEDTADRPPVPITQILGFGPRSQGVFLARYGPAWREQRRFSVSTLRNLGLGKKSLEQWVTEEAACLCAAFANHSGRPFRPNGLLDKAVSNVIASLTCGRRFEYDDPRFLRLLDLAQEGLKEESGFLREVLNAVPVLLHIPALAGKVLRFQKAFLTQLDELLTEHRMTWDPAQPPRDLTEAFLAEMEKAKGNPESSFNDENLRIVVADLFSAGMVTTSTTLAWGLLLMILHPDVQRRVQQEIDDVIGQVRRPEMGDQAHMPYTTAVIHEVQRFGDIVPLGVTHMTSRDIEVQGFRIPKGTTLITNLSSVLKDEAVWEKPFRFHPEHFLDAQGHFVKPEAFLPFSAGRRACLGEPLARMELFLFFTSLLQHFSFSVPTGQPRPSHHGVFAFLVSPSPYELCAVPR

As usually defined, the EC50 is the concentration that produces a half-maximal response. Consider `COc1ccc2sc(N(CCCN(C)C)C(=O)c3ccc(S(=O)(=O)N4CCCc5ccccc54)cc3)nc2c1`, for which the EC50 in [1] was 0.139 µM (active); in experiment [2], 5.35 µM (active). A word on the AC50: it is the concentration giving half of the maximal activity seen. `CC(C)=CCC/C(C)=C/CO/N=C1/C[C@@H](O)[C@@H](O)[C@@H]2[C@H]3C(=O)N(c4ccc(F)cc4F)C(=O)[C@@H]3CC[C@H]12`: the AC50 on Cytochrome P450 3A4 was 3.98 µM (inconclusive).

Regarding `C/C(CCN1CCCc2nc(C)c(C)cc21)=N\OC[C@@H](O)COCc1ccco1`, the AC50 on Cytochrome P450 2D6 was 3.16 µM (inconclusive).

For `CCCN1CCN(CCCNC(=O)Cn2nc(-c3ccc(C)cc3)ccc2=O)CC1`, on Cytochrome P450 2D6, the AC50 was 20 µM (inconclusive). For the compound `CCCCCC(=O)Nc1cccc(C2=NOC3(C2)C[C@@H](C(N)=O)N(C(=O)c2ccc(Cl)cc2)C3)c1` (some centres undefined), the results for the EC50 in [1] and in experiment [2] were 0.374 µM (active) and > 30 µM (not active), respectively. As a reminder, the CC50 is the concentration that lowers cell viability or growth by half. For the compound `COc1ccccc1N(CC(=O)N/N=C/c1ccc(OCC(=O)NCc2ccco2)cc1)S(=O)(=O)c1ccc(C)cc1`, the CC50 in experiment [3] is 42.5 µM (active). On to `CNc1ccnc(-c2ccccc2C(F)(F)F)n1`, for which the AC50 on Cytochrome P450 3A4 and at Cytochrome P450 2C19 was 25.1 µM (inconclusive) each time. Take `Nc1cc(Cl)nc(N/N=C/c2ccccc2[N+](=O)[O-])n1`: the AC50 at Cytochrome P450 2C19 was 8.91 µM (inconclusive). Take `CN(C)c1ccc(/C=N\NC(=O)c2cnc3ccccc3c2)cc1`: at Cytochrome P450 3A4, the AC50 was 3.98 µM (inconclusive). On to `Cn1nc(C(=O)NC2CCCCC2)c2ccccc2c1=O`, for which the AC50 at Cytochrome P450 2D6 is 10 µM (inconclusive); on Cytochrome P450 3A4 it was 5.01 µM (inconclusive). For `COc1ccc(OC)c(-c2cc(C(=O)Nc3cccc(Cl)c3)no2)c1`, the EC50 in [1] is 2.43 µM (active); in [2] it was > 30 µM (not active).

On to `Cn1c(S)nnc1-c1cc(Br)ccc1O`, for which the EC50 in the experiment on Streptococcus is > 150 µM (not active); in experiment [4], 11 µM (active). Regarding `CCCNC(=O)OC[C@@H]1O[C@H](c2ccccc2)C=C[C@@H]1Oc1ccc(OC)cc1`, at Cytochrome P450 2D6, the AC50 is 3.16 µM (inconclusive). With `S=C(Nc1ccccc1)Nc1ccccc1C#Cc1ccccc1`, the AC50 at Cytochrome P450 2D6 was 15.8 µM (inconclusive); at Cytochrome P450 3A4, 7.94 µM (inconclusive). Taken in the same sequence, the figures for `O=c1c(-c2ccc(F)cc2)nc2cncnc2n1-c1ccccc1` were 20 µM (inconclusive) and 12.6 µM (inconclusive). As for `COc1ccccc1-c1cc(-c2ccccc2)nc(SCC(=O)O)c1C#N`, the EC50 in the experiment with Streptococcus was 13.4 µM (active); at Streptokinase A it was 1.72 µM (active); in experiment [4], 3.36 µM (active). Regarding `Cc1ccc(Sc2cc(C(=O)NCCCN(C)C)c3ccccc3n2)cc1`, the EC50 in [1] was 0.133 µM (active); in experiment [2], 14.6 µM (active). `CN(C)Cc1ccccc1-c1nccc(Nc2ccc(F)cc2)n1`: on Cytochrome P450 3A4, the AC50 is 15.8 µM (inconclusive).

As to `Cc1ccccc1S(=O)(=O)c1c(C)cc(-c2ccccc2)nc1O`, the AC50 at Cytochrome P450 3A4 is 28.2 µM (inconclusive). As for `COc1ccc(C2N=C(N)N=C(N)N2c2ccccc2OC)cc1OC` (centres undefined), the AC50 on Cytochrome P450 2C19 is 39.8 µM (inconclusive). As to `O=C(COn1nnc2ccc(C(F)(F)F)cc21)Nc1nnc(-c2ccccc2)o1`, the EC50 in the experiment with Streptococcus was 3.65 µM (active); in [4], 2.77 µM (active). Take `CN(C)c1ncc2nc(-c3cccs3)c(=O)n(Cc3cccs3)c2n1`: the AC50 at Cytochrome P450 3A4 was 3.16 µM (inconclusive). Take `COC(=O)[C@@]1(Cc2ccc(OC)cc2)[C@H]2c3cc(C(=O)N4CCCC4)n(CCc4ccc(O)c(O)c4)c3C[C@H]2CN1C(=O)c1ccccc1`: the AC50 on Cytochrome P450 2D6 is 39.8 µM (inconclusive). With `CC(CC(=O)Nc1nc2ccccc2[nH]1)c1ccccc1` (centres undefined), the EC50 (with Streptococcus; at Streptokinase A; in experiment [4]) was > 150 µM (not active) in each case.

With `COc1ccccc1N1CCN(C/C=C/c2ccc(N(C)C)cc2)CC1`, the figures for the EC50 in experiment [1] and in experiment [2] were 1.46 µM (active) and > 60 µM (not active), respectively. `Cc1ccc(S(=O)(=O)Nc2ccc(Cl)cc2)cc1NC(=O)c1cc2c(s1)CCCC2`: the EC50 is 14.9 µM (active) with Streptococcus; > 150 µM (not active) at Streptokinase A; 1.18 µM (active) in experiment [1]; 4.39 µM (active) in experiment [4]; 25.8 µM (active) in experiment [2]. As for `N#Cc1cccc(NC(=O)N2CC[C@@]3(CCCNC3)C2)c1`, at Cytochrome P450 3A4, the AC50 was 25.1 µM (inconclusive).

Take `CC(C)(C)c1ccc(O)c(/N=C/c2c(O)ccc3ccccc23)c1`: the EC50 in the experiment with Streptococcus was > 150 µM (not active); on Streptokinase A, > 150 µM (not active); in [4], 5.5 µM (active).

For `CCCS(=O)(=O)N1CCCC(C(=O)NCCN(C)Cc2ccccc2)C1` (centres undefined), the AC50 on Cytochrome P450 2D6 is 5.01 µM (inconclusive). Take `Cc1ccc(C)c(/C=N/NC(=S)NCCc2ccccc2)c1`: the EC50 was > 150 µM (not active) with Streptococcus, > 150 µM (not active) at Streptokinase A and 32.3 µM (active) in experiment [4]. As to `CCSc1nnc(NC(=O)c2nc(-c3ccccc3)n(-c3ccccc3)n2)s1`, the EC50 with Streptococcus is 16.5 µM (active); at Streptokinase A, 20.2 µM (active); in experiment [4], 7.28 µM (active). On to `O=c1cnc2cnc(N3CCNCC3)nc2n1Cc1cccs1`, for which the AC50 is 20 µM (inconclusive) at Cytochrome P450 2D6 and 15.8 µM (inconclusive) at Cytochrome P450 3A4. Consider `COc1ccc(CNc2cc(-c3ccccc3Cl)ncn2)c(OC)c1`, for which the AC50 at Cytochrome P450 2D6 was 39.8 µM (inconclusive). For `Cc1ccc(C(c2nnnn2C2CCCC2)N2CCN3CCCC3C2)cc1` (centres undefined), at Cytochrome P450 2C19, the AC50 was 31.6 µM (inconclusive). In the case of `COc1ccc(N2CC(C(=O)Nc3nnc(SCc4cccnc4)s3)CC2=O)cc1` (centres undefined), the EC50 (in the experiment with Streptococcus; at Streptokinase A; in [4]) was > 150 µM (not active) each time. As to `CC[C@]1(c2cccc(O)c2)CCCCN(C)C1`, the AC50 on Cytochrome P450 2D6 is 10 µM (inconclusive). The same measure, in the same setting: for `COc1ccc(/C=C2\SC(=O)N(CCNC(=O)C3CC(=O)N(c4ccccc4)C3)C2=O)cc1` (centres undefined) the value was 20 µM (inconclusive). As for `COc1ccc(N2CCN(CC(=O)Nc3nc4c(s3)CC(C)CC4)CC2)cc1` (centres undefined), the EC50 was > 150 µM (not active) in the experiment with Streptococcus, > 150 µM (not active) on Streptokinase A and 23.8 µM (active) in [4].

With `CCc1ccc(C2=Nn3c(nnc3-c3cccs3)SC2)cc1`, on Cytochrome P450 2C19, the AC50 is 5.62 µM (inconclusive). For the compound `CCC(=O)N(CCC(Cc1ccccc1)c1ccc2c(c1)OCO2)Cc1ccccc1F` (centres undefined), the EC50 in the experiment on Streptococcus was 40.3 µM (active); on Streptokinase A it was 10.7 µM (active); in [4] it was 12.2 µM (active). For `COCCNc1nc(-c2ccc(N(C)C)cc2)nc2ccccc12`, the AC50 at Cytochrome P450 2D6 is 39.8 µM (inconclusive). Take `O=C(COc1cccnc1[N+](=O)[O-])N1N=C(c2ccc(Cl)cc2)CC1c1ccco1` (centres undefined): the EC50 is 2.8 µM (active) in [1] and > 60 µM (not active) in experiment [2]. As to `Cc1cccc(-n2nc([N+](=O)[O-])c(NCc3cccnc3)[n+]2[O-])c1`, the AC50 on Cytochrome P450 2D6 was 12.6 µM (inconclusive). Also, the EC50 in experiment [1] was 0.582 µM (active); in experiment [2], > 60 µM (not active). For `Cc1cc(Br)ccc1NC(=O)CN1C(=O)C2C3CC(c4ccccc4)C(C3)C2C1=O` (centres undefined), the 50% effective concentration (EC50) in experiment [1] was 2.6 µM (active); in [2], > 60 µM (not active). For `CCc1ncc(CO)n1Cc1cccc2ccccc12`, the AC50 on Cytochrome P450 2C19 was 0.398 µM (inconclusive). For `O=c1c(CCc2ccccc2)nc2cnc(N3CCNCC3)nc2n1C1CC1`, the figures for the AC50 at Cytochrome P450 2D6 and on Cytochrome P450 3A4 were 39.8 µM (inconclusive) and 12.6 µM (inconclusive), respectively. For the compound `COc1cccc(CC2(CO)CCCN(C/C=C/c3ccccc3OC)C2)c1` (centres undefined), the figures for the EC50 in experiment [1] and in experiment [2] were 0.209 µM (active) and > 60 µM (inconclusive), respectively. For `Cc1c(-c2ccc(O)cc2)nn(-c2ccc(O)cc2)c1-c1ccc(OCCN2CCCCC2)cc1`, the AC50 at Cytochrome P450 3A4 was 3.16 µM (inconclusive). As for `O=C(Nc1ccccc1)N1CCCC2(CCN(C(=O)c3cccc(F)c3)CC2)C1`, the AC50 on Cytochrome P450 2C19 was 10 µM (inconclusive).

Turning to `COc1ccc(C2C(=O)N(CCc3ccccc3)CC(=O)N2C2CCCC2)cc1` (centres undefined), the AC50 at Cytochrome P450 2D6 is 14.1 µM (inconclusive). On the same count and under the same terms, for `COc1cccc(-c2nccc(NCc3cccnc3)n2)c1` the value was 25.1 µM (inconclusive). `Cc1c(Cc2ccccc2)c(=O)oc2cc(OCc3ccc(C(=O)O)cc3)ccc12`: the EC50 was > 50 µM (not active) in the experiment on Streptococcus, > 150 µM (not active) at Streptokinase A and 7.39 µM (active) in [4].

With `Cc1nn(Cc2c(F)c(F)c(F)c(F)c2F)c(C)c1NC(=O)c1ccc(COc2ccc(Cl)cc2Cl)o1`, the EC50 in [1] was 1.11 µM (active); in experiment [2] it was > 60 µM (not active).
